Here are results for three molecules from patent US5773442A, “Benzamidine derivatives and pharmaceutical composition containing them” (Yamanouchi Pharmaceutical Co., Ltd., priority 1995, dated 1998).

For one experiment, the target named is T1, GPIIb/IIIa (Homo sapiens, UniProt P05106+P08514).
T1 construct: GPIIb/IIIa was purified according to a Fitzgerald et al's method; from tissue; host or cells: platelets (human, inferred from the cited Fitzgerald method)
As to the kind of experiment: Bonding of fibrinogen to pure GPIIb/IIIa. Format: binding. The settings on record: biotinated fibrinogen, 37° C., 3 hours. The method, then: Bonding of fibrinogen to pure GPIIb/IIIa: GPIIb/IIIa was purified according to a Fitzgerald et al's method. Fibrinogen was biotinated with NHS-LC-Biotin (manufactured by Pierce Co.). The pure GPIIb/IIIa was added to TBS (20 mM Tris-HCl, pH 7.4, 150 mM NaCl, 1 mM CaCl2, 1 mM MgCl2) at one μg/ml. 100 μl of the resulting solution was put into a 96-well plate (MaxiSorp™, manufactured by Nunc Co.) and left at 4° C. overnight. […] After the solution was removed, a sample compound to be tested and the biotinated fibrinogen were added to the plate and reacted at 37° C. for 3 hours. […] This was washed three times with 300 μl of T-TBS.

Experiment [1] concerns platelet aggregation (PRP; ADP and collagen as triggers). Kind of experiment: Ex vivo platelet aggregation-inhibiting activity in cynomolgus monkeys. The settings on record: 3 mg/kg via stomach tube, 20 μM ADP and 10 μg/ml collagen, mean ± SEM (n = 3). The method, then: Ex vivo platelet aggregation-inhibiting activity in cynomolgus monkeys:
Cynomolgus monkeys that had been lightly anesthetized by intramuscular administration of ketamine hydrochloride were fixed on a work-bench, and a sample compound of the present invention as dissolved in 2 ml of […] was forcedly administered into its stomach via a stomach tube at a dose of 3 mg/kg. Before the administration and after the administration at a predetermined period of time, 3 ml (containing 1/10 times by volume of sodium citrate) of the blood was collected from the animal through its femoral vein. From the blood was obtained platelet-rich-plasma (PRP) of 300,000/μl, according to the De Marco et al's method (see J. clin. Invest., 77, 1272-1277, 1988). The PRP was adjusted at 3×10^8 /ml with an automatic blood cell counter (MEK-5158 Model, produced by Nihon Koden Co.) before use. Added thereto were 20 μM of ADP and 10 μg/ml of bovine tendon-derived collagen (produced by Niko Bioscience Co.) as triggers, whereby the aggregation of the platelets was caused in the PRP. The degree of the aggregation of the platelets was measured with a platelet aggregation meter (NBS Hematracer 801, produced by Niko Bioscience Co.). The platelet aggregation-inhibiting activity of the tested compound was represented by the inhibition percentage (%) relative to the maximum aggregation percentage of each animal before the addition of the compound thereto.

T1 sequence (P08514 32-887 limits assumed): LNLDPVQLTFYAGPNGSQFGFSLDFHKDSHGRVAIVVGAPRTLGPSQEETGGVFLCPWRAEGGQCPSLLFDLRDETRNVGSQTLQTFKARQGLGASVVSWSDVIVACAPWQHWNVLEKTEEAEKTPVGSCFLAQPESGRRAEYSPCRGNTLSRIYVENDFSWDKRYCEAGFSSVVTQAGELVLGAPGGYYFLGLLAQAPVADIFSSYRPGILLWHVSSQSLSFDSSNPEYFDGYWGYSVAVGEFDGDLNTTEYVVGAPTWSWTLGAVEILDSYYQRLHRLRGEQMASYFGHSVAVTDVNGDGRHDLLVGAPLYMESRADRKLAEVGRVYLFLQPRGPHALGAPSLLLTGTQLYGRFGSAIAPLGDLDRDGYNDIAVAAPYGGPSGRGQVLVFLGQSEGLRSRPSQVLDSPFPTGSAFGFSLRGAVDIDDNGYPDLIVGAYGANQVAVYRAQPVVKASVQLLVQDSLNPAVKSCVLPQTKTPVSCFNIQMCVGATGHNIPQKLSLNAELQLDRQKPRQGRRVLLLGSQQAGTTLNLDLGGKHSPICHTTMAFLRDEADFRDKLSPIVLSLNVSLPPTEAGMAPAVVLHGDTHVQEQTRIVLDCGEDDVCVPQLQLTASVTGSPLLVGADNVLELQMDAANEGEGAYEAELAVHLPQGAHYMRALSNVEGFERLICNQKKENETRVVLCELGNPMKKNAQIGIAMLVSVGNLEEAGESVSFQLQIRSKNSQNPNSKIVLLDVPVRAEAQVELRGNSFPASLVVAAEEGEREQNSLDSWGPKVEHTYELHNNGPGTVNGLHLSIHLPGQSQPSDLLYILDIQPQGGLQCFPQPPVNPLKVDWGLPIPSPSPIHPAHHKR
T1 sequence (P08514 891-1039 limits assumed): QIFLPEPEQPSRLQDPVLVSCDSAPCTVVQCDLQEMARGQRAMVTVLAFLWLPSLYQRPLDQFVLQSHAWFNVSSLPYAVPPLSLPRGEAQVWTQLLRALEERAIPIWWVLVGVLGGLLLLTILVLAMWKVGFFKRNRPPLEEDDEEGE
T1 sequence (P05106 27-788): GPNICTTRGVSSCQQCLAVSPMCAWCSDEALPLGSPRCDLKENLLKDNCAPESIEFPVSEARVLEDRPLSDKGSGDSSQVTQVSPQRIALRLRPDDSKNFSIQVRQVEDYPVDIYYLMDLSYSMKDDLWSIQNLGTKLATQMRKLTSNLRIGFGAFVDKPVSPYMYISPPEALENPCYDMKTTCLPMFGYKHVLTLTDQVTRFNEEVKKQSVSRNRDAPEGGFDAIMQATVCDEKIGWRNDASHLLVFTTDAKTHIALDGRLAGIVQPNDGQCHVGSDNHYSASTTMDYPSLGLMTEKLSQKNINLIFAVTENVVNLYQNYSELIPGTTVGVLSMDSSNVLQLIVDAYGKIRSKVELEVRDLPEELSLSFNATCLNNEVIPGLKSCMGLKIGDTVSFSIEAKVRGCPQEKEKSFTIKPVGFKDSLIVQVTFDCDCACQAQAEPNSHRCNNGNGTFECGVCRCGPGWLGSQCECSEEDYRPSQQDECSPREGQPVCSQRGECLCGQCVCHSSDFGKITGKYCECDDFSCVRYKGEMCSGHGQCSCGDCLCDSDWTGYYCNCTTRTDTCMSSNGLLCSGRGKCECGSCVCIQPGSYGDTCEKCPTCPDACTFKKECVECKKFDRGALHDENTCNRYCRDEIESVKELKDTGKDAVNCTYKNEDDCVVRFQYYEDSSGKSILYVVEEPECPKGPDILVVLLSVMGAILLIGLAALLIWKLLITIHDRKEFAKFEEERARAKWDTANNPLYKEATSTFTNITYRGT

In general, IC50 refers to the concentration at which inhibition is half-maximal. `N=C(N)c1ccc(N2CC(=O)N(C3CCN(CC(=O)O)CC3)CC2=O)cc1` [Example 16, 4-[4-(4-amidinophenyl)-2,5-dioxo-1-piperazinyl]-1-piperidineacetic acid] registered an IC50 on GPIIb/IIIa of 10.4 nM.

For `Cl.N=C(N)c1ccc(N2CCN(C3CCN(CC(=O)O)CC3CC(=O)O)CC2)cc1` (centres unmarked) [Example 8, 4-[4-(4-Amidinophenyl)-1-piperazinyl]-1,3-piperidinediacetic acid hydrochloride], it took 8.4 nM to reach half-maximal inhibition against GPIIb/IIIa (IC50). In experiment [1], the “platelet aggregation-inhibition ratio (%), 2 hours after” value is 57 ± 20%; the “platelet aggregation-inhibition ratio (%), 4 hours after” value is reported as 98 ± 1.0%; the “platelet aggregation-inhibition ratio (%), 6 hours after” value turned out to be 98 ± 1.2%; the “platelet aggregation-inhibition ratio (%), 9 hours after” value is 81 ± 19%. In experiment [1], the “platelet aggregation-inhibition ratio (%), 12 hours after” value stood at 100 ± 0% and the “platelet aggregation-inhibition ratio (%), 24 hours after” value is 24 ± 9.1%.

For the molecule `N=C(N)c1ccc(N2CCN(C3CCN(CC(=O)O)CC3)CC2=O)cc1` [Example 18, 4-[4-(4-Amidinophenyl)-3-oxo-1-piperazinyl]-1-piperidineacetic acid], in experiment [1], the “platelet aggregation-inhibition ratio (%), 2 hours after” value amounted to 86 ± 8.4%; the “platelet aggregation-inhibition ratio (%), 4 hours after” value is 98 ± 0.9%; the “platelet aggregation-inhibition ratio (%), 6 hours after” value amounted to 75 ± 25%; the “platelet aggregation-inhibition ratio (%), 9 hours after” value turned out to be 97 ± 1.7%. In experiment [1], the “platelet aggregation-inhibition ratio (%), 12 hours after” value is reported as 99 ± 0.7% and the “platelet aggregation-inhibition ratio (%), 24 hours after” value is 34 ± 11%.
